From US8158621B2, “Methods of treating or preventing autoimmune diseases with 2,4-pyrimidinediamine compounds” (Rigel Pharmaceuticals, Inc., priority 2002, dated 2012)

These compounds were tested on Human Jurkat T-cells (clone N) (assay: Jurkat T-cell activation (anti-TCR, CD69 upregulation)). Conditions: not given.
Assay type: cell-based
Summary of the method: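 Jurkat cells in RPMI + 5% FBS preincubated with compound 1 h at 37 °C, then stimulated with anti-TCR C305 at 500 ng/ml for 20 h. CD69 surface expression stained with anti-CD69-APC and read by flow cytometry; IC50 versus solvent-only control.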

SMILES | IC50
CN1CCN(C(=O)CNc2cccc(Nc3ncc(F)c(Nc4cccc(O)c4)n3)c2)CC1 [Compound R950223] | 2.77 µM
CNC(=O)Cn1ncc2ccc(Nc3ncc(F)c(Nc4ccc5cnn(CC(=O)NC)c5c4)n3)cc21 [Compound R935206] | > 10 µM
CC(=O)Nc1cccc(N(C(C)=O)c2nc(N(C(C)=O)c3cccc(N(C(C)=O)C(C)=O)c3)ncc2F)c1 [Compound R950246] | > 10 µM
Fc1cnc(Nc2cccc(OCCN3CCOCC3)c2)nc1Nc1ccc2c(c1)OCCO2 [Compound R926486] | 1.75 µM
CC(C)Oc1ccc(Nc2ncc(F)c(Nc3ccc4c(cnn4C)c3)n2)cc1 [Compound R935203] | > 10 µM
O=C(CNc1cccc(Nc2ncc(F)c(Nc3cccc(NCCO)c3)n2)c1)NCCO [Compound R950231] | 8.69 µM
O=C(O)c1cnc(Nc2cccc(O)c2)nc1NC(C(=O)O)c1ccccc1 (stereo not drawn) [Compound R926535] | > 10 µM
CCOC(=O)CNc1cccc(Nc2ncc(F)c(Nc3cccc(O)c3)n2)c1 [Compound R950215] | 5.01 µM
Cc1cc(Nc2nc(Nc3cccc(OCCN4CCOCC4)c3)ncc2F)cc(C)c1O [Compound R940256] | 4.75 µM
CCOC(=O)COc1cccc(Nc2nc(Nc3cccc(C(C)(C)C)c3)ncc2F)c1 [Compound R940266] | > 10 µM
CCCNC(=O)COc1ccc(Nc2ncc(C#N)c(Nc3ccc(OCC(=O)NCCC)cc3)n2)cc1 [Compound R925853] | > 10 µM
CC(C)Oc1ccc(Nc2ncc(F)c(Nc3ccc4[nH]ncc4c3)n2)cc1 [Compound R935266] | > 10 µM
N#CCOc1ccc(Nc2nc(Nc3cccc(O)c3)ncc2F)cc1 [Compound R945071] | 0.631 µM
Nc1cccc(Nc2ncc(F)c(Nc3cccc(NCCOCc4ccccc4)c3)n2)c1 [Compound R950175] | > 10 µM
Cc1nc(COc2cccc(Nc3ncc(F)c(Nc4cccc(O)c4)n3)c2)no1 [Compound R945127] | 11.1 µM
CNC(=O)CCn1ncc2ccc(Nc3ncc(F)c(Nc4ccc(OC(C)C)cc4)n3)cc21 [Compound R935291] | 3.14 µM
CCOC(=O)C1CCN(C(=O)c2cccc(Nc3nc(Nc4cccc(OCC(=O)NC)c4)ncc3F)c2)CC1 [Compound R926941] | > 10 µM
COC(=O)Cn1ncc2ccc(Nc3nc(Nc4ccc(OC(C)C)cc4)ncc3F)cc21 [Compound R935218] | 22.7 µM
OCCn1ncc2cc(Nc3nc(Nc4cccc(O)c4)ncc3F)ccc21 [Compound R935259] | 3.46 µM
CCOC(=O)COc1cccc(Nc2nc(Nc3cccc(O)c3)ncc2F)c1 [Compound R926775] | > 10 µM
CNCCNC(=O)CNc1cccc(Nc2ncc(F)c(Nc3cccc(NCCO)c3)n2)c1 [Compound R950234] | > 10 µM
OCCOc1cccc(Nc2ncc(CO)c(Nc3cccc(O)c3)n2)c1 [Compound R926735] | 5.98 µM
OCCn1ncc2ccc(Nc3ncc(F)c(Nc4ccc5cnn(CCO)c5c4)n3)cc21 [Compound R935238] | 6.73 µM
Oc1cccc(Nc2ccnc(Nc3ccc(OCc4nn[nH]n4)cc3)n2)c1 [Compound R920819] | > 10 µM
CC(C)Oc1ccc(Nc2nc(Nc3ccc4nn(C)cc4c3)ncc2F)cc1 [Compound R935298] | 2.32 µM
CCOC(=O)COc1ccc(Nc2ncc(-c3nn[nH]n3)c(Nc3ccc(OCC(=O)OCC)cc3)n2)cc1 [Compound R925810] | 21.3 µM
CN(CCO)C(=O)c1cc2cc(Nc3ncc(F)c(Nc4cccc(O)c4)n3)ccc2o1 [Compound R926725] | 3.37 µM

Other lines, results leading:

IC50 | SMILES
5.34 µM | Cc1noc(COc2ccc(Nc3nc(Nc4ccc5c(c4)OCCO5)ncc3F)cc2)n1 [Compound R935145]
4.68 µM | NC(=O)COc1ccc(Nc2ncc(F)c(Nc3cccc(O)c3)n2)cc1 [Compound R945064]
1.01 µM | CNC(=O)COc1cc(Nc2ncc(F)c(Nc3ccc4c(c3)OCCO4)n2)ccc1OC [Compound R926828]
0.8 µM | OCCCn1ncc2cc(Nc3ncc(F)c(Nc4ccc5c(c4)OCCO5)n3)ccc21 [Compound R935302]
2.48 µM | CNC(=O)COc1cccc(Nc2ncc(F)c(Nc3ccc(C)c(Cl)c3)n2)c1 [Compound R926839]
13.9 µM | COC(=O)COc1cccc(Nc2ncc(F)c(Nc3cc(C)c(O)c(C)c3)n2)c1 [Compound R945139]
6.16 µM | COC(=O)COc1cccc(Nc2ncc(F)c(Nc3ccc4c(c3)OCCO4)n2)c1 [Compound R945124]
> 10 µM | CCOC(=O)c1cnc(Nc2cccc(OCC(=O)NC)c2)nc1Nc1ccc2c(c1)OCCO2 [Compound R926800]
11.3 µM | COc1ccc(Nc2nc(Nc3cccc(OCC(=O)NCC(O)CO)c3)ncc2F)cc1OC (stereo not drawn) [Compound R926734]
10.5 µM | CNC(=O)COc1cc(Nc2ncc(F)c(Nc3cccc(O)c3)n2)cc(OCC(=O)NC)c1 [Compound R926930]
11.8 µM | CNC(=O)COc1cccc(Nc2ncc(F)c(Nc3cc(OC)cc(C(F)(F)F)c3)n2)c1 [Compound R926833]
3.58 µM | CNC(=O)COc1cccc(Nc2ncc(F)c(Nc3ccc(OC)c(C(F)(F)F)c3)n2)c1 [Compound R926835]
17.1 µM | CCOC(=O)C(C)(C)Oc1cccc(Nc2ncc(F)c(Nc3ccc4c(c3)OCCO4)n2)c1 [Compound R926907]
1.91 µM | CN(C)C(=O)COc1cccc(Nc2ncc(F)c(Nc3ccc4c(c3)OCCO4)n2)c1 [Compound R925755]
1.9 µM | OCCn1ncc2ccc(Nc3ncc(F)c(Nc4ccc5c(c4)OCCO5)n3)cc21 [Compound R935248]
2.6 µM | O=C(COc1cccc(Nc2ncc(F)c(Nc3ccc4c(c3)OCCO4)n2)c1)N1CCNCC1 [Compound R926503]
3.06 µM | O=C(COc1ccc(Nc2ncc(F)c(Nc3ccc4c(c3)OCCO4)n2)cc1)NCCO [Compound R909239]
8.16 µM | CNC(=O)CCn1ncc2ccc(Nc3ncc(F)c(Nc4cccc(O)c4)n3)cc21 [Compound R935294]
1.7 µM | OCCCn1ncc2ccc(Nc3ncc(F)c(Nc4ccc5c(c4)OCCO5)n3)cc21 [Compound R935287]
2.88 µM | COC(=O)c1ccc(Cn2cc3ccc(Nc4ncc(F)c(Nc5ccc6c(c5)OCCO6)n4)cc3n2)c(OC)c1 [Compound R935336]
4 µM | CNC(=O)COc1cc(O)cc(Nc2ncc(F)c(Nc3cccc(O)c3)n2)c1 [Compound R926929]
> 10 µM | CNC(=O)COc1cccc(Nc2ncc(F)c(Nc3cc(OC)c(Cl)cc3OC)n2)c1 [Compound R926859]
> 10 µM | COC(=O)COc1cccc(Nc2ncc(F)c(Nc3ccc(OC(C)C)cc3)n2)c1 [Compound R945125]
6.09 µM | CNC(=O)COc1cccc(Nc2ncc(F)c(Nc3ccc4c(c3)C(=O)CCO4)n2)c1 [Compound R950345]
1.99 µM | CNC(=O)COc1cccc(Nc2ncc(F)c(Nc3cccc(NC)c3)n2)c1 [Compound R950267]
3.13 µM | N#CCOc1ccc(Nc2nc(Nc3ccc4c(c3)OCCO4)ncc2F)cc1 [Compound R945172]
16.2 µM | CNC(=O)COc1cccc(Nc2ncc(F)c(Nc3ccc(OC)c(C(=O)NC(C)C)c3)n2)c1 [Compound R940312]
1.73 µM | NC(=O)CNc1cccc(Nc2ncc(F)c(Nc3ccc4c(c3)OCCO4)n2)c1 [Compound R950192]

Same assay, conditions: Homo sapiens

SMILES | IC50
Fc1cnc(Nc2ccc3cc[nH]c3c2)nc1Nc1ccc2cc[nH]c2c1 [Compound R926594] | 1.25 µM

Same assay, conditions: Homo sapiens, Jurkat

SMILES | IC50
Cc1cc(Nc2ncc(F)c(Nc3cc(C)c(O)cc3C)n2)c(C)cc1O [Compound R926623] | 10 µM
CC(=O)c1cccc(Nc2ncc(F)c(Nc3cccc(C(C)=O)c3)n2)c1 [Compound R950376] | 18.1 µM
CC1(Cl)CC(Nc2ncc(F)c(Nc3ccc4c(c3)-n3ccnc3CO4)n2)=CC=C1O (stereo not drawn) [Compound R935263] | 2.02 µM
N#Cc1cccc(Nc2ncc(F)c(Nc3cccc(C#N)c3)n2)c1 [Compound R945051] | > 10 µM
Oc1ccc(Nc2ncc(F)c(Nc3ccc(O)c(C(F)(F)F)c3)n2)cc1C(F)(F)F [Compound R950093] | 11.3 µM
CCOC(=O)CNc1nc(NCC(=O)OCC)c([N+](=O)[O-])c(C(=O)OCC)n1 [Compound R925864] | 19.1 µM
CC(C)Oc1ccc(Nc2ncc(F)c(Nc3ccc(C(C)(C)CO)cc3)n2)cc1 [Compound R935168] | 3.71 µM
Nc1cccc(Nc2ccnc(Nc3cccc(N)c3)n2)c1 [Compound R950109] | 12.8 µM
c1cc(Nc2ccc3c(c2)OCCO3)nc(Nc2ccc3c(c2)OCCO3)n1 [Compound R926243] | 2.99 µM
O=C(O)c1cc2cc(Nc3ncc(F)c(Nc4cccc(O)c4)n3)ccc2[nH]1 [Compound R926479] | > 10 µM
CCCNC(=O)c1cccc(Nc2ncc(F)c(Nc3cccc(O)c3)n2)c1 [Compound R926937] | > 10 µM

The remaining lines, values ahead:

IC50 | SMILES
> 10 µM | OCCNc1ncc(F)c(Nc2ccc3c(c2)OCCO3)n1 [Compound R925746]
> 10 µM | Fc1ccc(Nc2ncc(F)c(Nc3ccc4c(c3)OCCO4)n2)cc1 [Compound R926220]
2.79 µM | CNC(=O)c1cccc(Nc2ncc(F)c(Nc3ccc4cc[nH]c4c3)n2)c1 [Compound R926933]
> 10 µM | COC(=O)c1ccc(Nc2ncc(F)c(Nc3ccc(C(=O)OC)c(O)c3)n2)cc1O [Compound R945056]
> 10 µM | Oc1cccc(Nc2nc(NCc3ccc4c(c3)OCCO4)ncc2F)c1 [Compound R945168]
> 10 µM | CCc1ccc(Nc2ncc(F)c(Nc3ccc4c(c3)OCCO4)n2)cc1 [Compound R926237]
> 10 µM | CCCCCCOc1ccc(Nc2ncc(F)c(Nc3ccc4c(c3)OCCO4)n2)cc1 [Compound R920664]
> 10 µM | COc1ccc(C)c(Nc2ncc(F)c(Nc3ccc4c(c3)OCCO4)n2)c1 [Compound R926896]
8.92 µM | COC(=O)c1cc2cc(Nc3ncc(F)c(Nc4cccc(N)c4)n3)ccc2o1 [Compound R950162]
3.12 µM | c1coc(-c2cnc(Nc3ccc4c(c3)OCCO4)nc2Nc2ccc3c(c2)OCCO3)c1 [Compound R925785]
9.33 µM | C=CCNc1ncc(F)c(Nc2ccc3c(c2)OCCO3)n1 [Compound R925823]
